According to patent publication US7834023B2 (Portola Pharmaceuticals, Inc., priority 2006, dated 2010):

Target: T1, P2Y12 receptor (Homo sapiens, UniProt Q9H244)
T1 construct: endogenous in cells; host or cells: human platelets (outdated from blood banks or fresh), apyrase-washed, whole
Experiment: platelet ADP receptor binding assay (ARB): inhibition of [3H]2-MeS-ADP binding to platelets
Details: [3H]2-MeS-ADP binding to apyrase-washed human platelets
How it was run: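 Apyrase-washed human platelets (1×10^8 per well) were preincubated 5 min with serial compound dilutions in Hepes-Tyrode's/0.1% BSA/0.6% DMSO, then incubated 15 min at room temperature with 1 nM [3H]2-MeS-ADP. Filter-bound radioactivity gave specific binding (nonspecific: 10 μM 2-MeS-ADP), and IC50s came from non-linear regression.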

T1 sequence (Q9H244 whole entry): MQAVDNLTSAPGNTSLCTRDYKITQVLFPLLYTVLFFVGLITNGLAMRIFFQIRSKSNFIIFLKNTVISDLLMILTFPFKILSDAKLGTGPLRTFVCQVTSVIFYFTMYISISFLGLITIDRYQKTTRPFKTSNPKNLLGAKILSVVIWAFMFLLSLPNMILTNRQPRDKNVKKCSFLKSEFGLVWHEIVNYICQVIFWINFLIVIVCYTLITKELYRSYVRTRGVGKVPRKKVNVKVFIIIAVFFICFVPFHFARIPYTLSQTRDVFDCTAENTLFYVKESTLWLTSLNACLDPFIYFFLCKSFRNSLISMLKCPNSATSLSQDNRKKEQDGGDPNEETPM

IC50 | SMILES
> 500 nM | COC(=O)C(NC(=O)c1ccc(N2COc3ccc(C)cc3C2=O)cc1)c1ccc(Cl)s1 (stereo not drawn) [Compound 76, methyl 2-(5-chlorothiophen-2-yl)-2-(4-(6-methyl-4-oxo-2H-benzo[e][1,3]oxazin-3(4H)-yl)benzamido)acetate]
50 to 500 nM | CNc1cc2[nH]c(=O)n(-c3ccc(C(=O)NC(c4nnn[nH]4)c4ccc(Cl)s4)cc3OC)c(=O)c2cc1F (stereo not drawn) [Compound 52, N-((5-chlorothiophen-2-yl)(1H-tetrazol-5-yl)methyl)-4-(6-fluoro-7-(methylamino)-2,4-dioxo-1,2-dihydroquinazolin-3(4H)-yl)-3-methoxybenzamide]
> 500 nM | Cc1ccc2c(c1)OCN(c1ccc(C(=O)NC(C(=O)O)c3ccc(Cl)s3)cc1)C2=O (stereo not drawn) [Compound 69, 2-(5-chlorothiophen-2-yl)-2-(4-(7-methyl-4-oxo-2H-benzo[e][1,3]oxazin-3(4H)-yl)benzamido)acetic acid]
> 500 nM | CCc1ccc2c(c1)CCN(c1ccc(C(=O)NC(C(=O)O)c3ccc(Cl)s3)cc1)C2=O (stereo not drawn) [Compound 119, 2-(5-chlorothiophen-2-yl)-2-(4-(6-ethyl-1-oxo-3,4-dihydroisoquinolin-2(1H)-yl)benzamido)acetic acid]
> 500 nM | O=C(NC(C(=O)O)c1cccs1)c1ccc(-n2ccc3ccccc3c2=O)cc1 (stereo not drawn) [Compound 97, 2-(4-(1-oxoisoquinolin-2(1H)-yl)benzamido)-2-(thiophen-2-yl)acetic acid]
> 500 nM | CCc1ccc2c(=O)n(-c3ccc(C(=O)NC(C(=O)O)c4ccc(Cl)s4)cc3)ccc2c1 (stereo not drawn) [Compound 93, 2-(5-chlorothiophen-2-yl)-2-(4-(6-ethyl-1-oxoisoquinolin-2(1H)-yl)benzamido)acetic acid]
< 50 nM | CNc1cc2c(cc1F)C(=O)N(c1ccc(C(=O)N[C@H](c3nnn[nH]3)c3ccc(Cl)s3)cc1)CO2 [Compound 89, (R)-N-((5-chlorothiophen-2-yl)(1H-tetrazol-5-yl)methyl)-4-(6-fluoro-7-(methylamino)-4-oxo-2H-benzo[e][1,3]oxazin-3(4H)-yl)benzamide]

Further lines, the molecule ahead of its results:

SMILES | IC50
CC(C)Oc1ccc2[nH]c(=O)n(-c3ccc(C(=O)NC(C(=O)O)c4ccc(Cl)s4)cc3)c(=O)c2c1 (stereo not drawn) [Compound 38, 2-(5-chlorothiophen-2-yl)-2-(4-(6-isopropoxy-2,4-dioxo-1,2-dihydroquinazolin-3(4H)-yl)benzamido)acetic acid] | > 500 nM
O=C(NC(Cc1cccs1)C(=O)O)c1ccc(-n2c(=O)[nH]c3cc(NCc4ccc(F)cc4)ccc3c2=O)cc1 (stereo not drawn) [Compound 3, 2-(4-(7-(4-fluorobenzylamino)-2,4-dioxo-1,2-dihydroquinazolin-3(4H)-yl)benzamido)-3-(thiophen-2-yl)propanoic acid] | 50 to 500 nM
CCc1ccc2c(c1)OCN(c1ccc(C(=O)NC(C(=O)O)c3ccc(Cl)s3)cc1)C2=O (stereo not drawn) [Compound 78, 2-(5-chlorothiophen-2-yl)-2-(4-(7-ethyl-4-oxo-2H-benzo[e][1,3]oxazin-3(4H)-yl)benzamido)acetic acid] | 50 to 500 nM
NC(=O)c1ccc2c(=O)n(-c3ccc(C(=O)NC(C(=O)O)c4ccc(Cl)s4)cc3)ccc2c1 (stereo not drawn) [Compound 94, 2-(4-(6-carbamoyl-1-oxoisoquinolin-2(1H)-yl)benzamido)-2-(5-chlorothiophen-2-yl)acetic acid] | > 500 nM
O=C(NC(C(=O)O)c1ccc(Cl)s1)c1ccc(-n2c(=O)[nH]c3ccc(I)cc3c2=O)cc1 (stereo not drawn) [Compound 37, 2-(5-chlorothiophen-2-yl)-2-(4-(6-iodo-2,4-dioxo-1,2-dihydroquinazolin-3(4H)-yl)benzamido)acetic acid] | 50 to 500 nM
O=C(Nc1ccc(-n2c(=O)[nH]c3cc(NCc4ccc(F)cc4)ccc3c2=O)cc1)NC(Cc1cccs1)C(=O)O (stereo not drawn) [Compound 109, 2-(3-(4-(7-(4-fluorobenzylamino)-2,4-dioxo-1,2-dihydroquinazolin-3(4H)-yl)phenyl)ureido)-3-(thiophen-2-yl)propanoic acid] | 50 to 500 nM
CNc1cc2c(cc1F)C(=O)N(c1ccc(C(=O)N(CCC(=O)O)Cc3ccc(Cl)s3)cc1)CO2 [Compound 86, 3-(N-((5-chlorothiophen-2-yl)methyl)-4-(6-fluoro-7-(methylamino)-4-oxo-2H-benzo[e][1,3]oxazin-3(4H)-yl)benzamido)propanoic acid] | > 500 nM
CNc1cc2[nH]c(=O)n(-c3ccc(C(=O)NC(c4nnn[nH]4)c4ccccc4Cl)cc3)c(=O)c2cc1F (stereo not drawn) [Compound 28, N-((2-chlorophenyl)(1H-tetrazol-5-yl)methyl)-4-(6-fluoro-7-(methylamino)-2,4-dioxo-1,2-dihydroquinazolin-3(4H)-yl)benzamide] | > 500 nM
CNc1cc2c(cc1F)C(=O)N(c1ccc(C(=O)NC(C(=O)O)c3cccs3)cc1)CO2 (stereo not drawn) [Compound 63, 2-(4-(6-fluoro-7-(methylamino)-4-oxo-2H-benzo[e][1,3]oxazin-3(4H)-yl)benzamido)-2-(thiophen-2-yl)acetic acid] | > 500 nM
O=C(Nc1ccc(-n2c(=O)[nH]c3cc(NCc4ccc(F)cc4)ccc3c2=O)cc1)NC(C(=O)O)c1cccs1 (stereo not drawn) [Compound 108, 2-(3-(4-(7-(4-fluorobenzylamino)-2,4-dioxo-1,2-dihydroquinazolin-3(4H)-yl)phenyl)ureido)-2-(thiophen-2-yl)acetic acid] | 50 to 500 nM
CNc1cc2cnn(-c3ccc(C(=O)NC(C(=O)O)c4ccc(Cl)s4)cc3)c(=O)c2cc1F (stereo not drawn) [Compound 117, 2-(5-chlorothiophen-2-yl)-2-(4-(7-fluoro-6-(methylamino)-1-oxophthalazin-2(1H)-yl)benzamido)acetic acid] | 50 to 500 nM
